Data taken from US20110166112A1, “METHOD FOR STIMULATING PLATELET PRODUCTION” (Eisai, Inc., priority 2009, published 2011).

System: subjects with chronic ITP
Test: Combined 28-day and 6-month rollover studies of E5501: safety (TEAEs, serious TEAEs, thromboembolic events, neoplasms, liver toxicity, discontinuations)
Type: in vivo, human
Description: Primary Endpoint: The primary endpoint was to assess the safety and tolerability to E5501, including AEs and clinical laboratory parameters, over the 6 additional months of treatment.
In this way, safety data reflect each subject's complete duration of exposure to E5501 starting with lead-in the previous study and continuing into the current study.
Following Protocol Amendment 4, the current study contained a flexible dose regimen; therefore, this study was considered to have an open-label, uncontrolled, single-arm design. […] This was the method used to assess safety. • Grouping method B was based on both treatment received and day 28 platelet response to study drug in Study the previous study. This was the method used for the analysis of efficacy for the FAS and the SE population.
Overall Adverse Events. […] The primary focus is on summary statistics for the entire safety population and provides an overall safety profile for E5501. The summary statistics for each group, e.g., lower ⅓, middle ⅓ and upper ⅓ average daily dose levels, is secondary and provides further safety information across the 3 dose levels.

[1] = Lower ⅓ dose (2.5-<8.85 mg), N=22

O=C(Nc1nc(-c2cc(Cl)cs2)c(N2CCN(C3CCCCC3)CC2)s1)c1cnc(N2CCC(C(=O)O)CC2)c(Cl)c1 [E5501, 1-(3-chloro-5-{[4-(4-chlorothiophen-2-yl)-5-(4-cyclohexylpiperazin-1-yl)thiazol-2-yl]carbamoyl}pyridine-2-yl)piperidine-4-carboxylic acid]
tolerability and safety profile (6-month treatment period): well tolerated and demonstrated a favorable safety profile | Any Serious TEAE, n (%) of subjects (E5501 Total, N=64): 5 (7.8) n (%) | Serious TEAE Cerebrovascular accident, n (%) of subjects (E5501 Total, N=64): 1 (1.6) n (%) | Serious TEAE Chest pain, n (%) of subjects (E5501 Total, N=64): 1 (1.6) n (%) | Serious TEAE Diarrhoea, n (%) of subjects (E5501 Total, N=64): 1 (1.6) n (%) | Serious TEAE Haemorrhage intracranial, n (%) of subjects (E5501 Total, N=64): 1 (1.6) n (%) | Serious TEAE Lethargy, n (%) of subjects (E5501 Total, N=64): 1 (1.6) n (%) | Serious TEAE Mitral valve incompetence, n (%) of subjects (E5501 Total, N=64): 1 (1.6) n (%) | Serious TEAE Myocardial infarction, n (%) of subjects (E5501 Total, N=64): 1 (1.6) n (%) | Serious TEAE Nausea, n (%) of subjects (E5501 Total, N=64): 1 (1.6) n (%) | Serious TEAE Pelvic venous thrombosis, n (%) of subjects (E5501 Total, N=64): 1 (1.6) n (%) | Serious TEAE Platelet count decreased, n (%) of subjects (E5501 Total, N=64): 1 (1.6) n (%) | Serious TEAE Pneumonia, n (%) of subjects (E5501 Total, N=64): 1 (1.6) n (%) | Serious TEAE Pyrexia, n (%) of subjects (E5501 Total, N=64): 1 (1.6) n (%) | Serious TEAE Thrombocytopenia, n (%) of subjects (E5501 Total, N=64): 1 (1.6) n (%) | Serious TEAE Transient ischaemic attack, n (%) of subjects (E5501 Total, N=64): 1 (1.6) n (%) | Serious TEAE Vomiting, n (%) of subjects (E5501 Total, N=64): 2 (3.1) n (%) | Serious TEAE, SOC Blood and lymphatic system disorders, n (%) of subjects (E5501 Total, N=64): 1 (1.6) n (%) | Serious TEAE, SOC Cardiac disorders, n (%) of subjects (E5501 Total, N=64): 2 (3.1) n (%) | Serious TEAE, SOC Gastrointestinal disorders, n (%) of subjects (E5501 Total, N=64): 2 (3.1) n (%) | Serious TEAE, SOC General disorders and administration site conditions, n (%) of subjects (E5501 Total, N=64): 1 (1.6) n (%) | Serious TEAE, SOC Infections and infestations, n (%) of subjects (E5501 Total, N=64): 1 (1.6) n (%) | Serious TEAE, SOC Investigations, n (%) of subjects (E5501 Total, N=64): 1 (1.6) n (%) | Serious TEAE, SOC Nervous system disorders, n (%) of subjects (E5501 Total, N=64): 3 (4.7) n (%) | Serious TEAE, SOC Vascular disorders, n (%) of subjects (E5501 Total, N=64): 1 (1.6) n (%) | Discontinued 501-CL-004, PC increase to ≧500,000/mm^3 (Full Analysis Set, Responders in previous study): 0 n | Abdominal pain upper, n of subjects [1]: 0 | Any Serious TEAE, n (%) of subjects [1]: 1 (4.5) n (%) | Any TEAE, % of subjects [1]: (90.9) % | Any TEAE, n of subjects [1]: 20 | Arthralgia, % of subjects [1]: (4.5) % | Arthralgia, n of subjects [1]: 1 | Asthenia, % of subjects [1]: (13.6) % | Asthenia, n of subjects [1]: 3 | Back pain, % of subjects [1]: (4.5) % | Back pain, n of subjects [1]: 1 | Constipation, n of subjects [1]: 0 | Contusion, % of subjects [1]: (13.6) % | Contusion, n of subjects [1]: 3 | Cough, % of subjects [1]: (4.5) % | Cough, n of subjects [1]: 1 | Deaths, n of subjects [1]: 0 | Diarrhoea, % of subjects [1]: (13.6) % | Diarrhoea, n of subjects [1]: 3 | Dizziness, % of subjects [1]: (4.5) % | Dizziness, n of subjects [1]: 1 | Dose interruption due to TEAE, % of subjects [1]: (13.6) % | Dose interruption due to TEAE, n of subjects [1]: 3 | Dyspnoea, % of subjects [1]: (9.1) % | Dyspnoea, n of subjects [1]: 2 | Ecchymosis, n of subjects [1]: 0 | Epistaxis, % of subjects [1]: (18.2) % | Epistaxis, n of subjects [1]: 4 | Fatigue, % of subjects [1]: (36.4) % | Fatigue, n of subjects [1]: 8 | Gingival bleeding, % of subjects [1]: (4.5) % | Gingival bleeding, n of subjects [1]: 1 | Headache, % of subjects [1]: (18.2) % | Headache, n of subjects [1]: 4 | Insomnia, % of subjects [1]: (4.5) % | Insomnia, n of subjects [1]: 1 | Migraine, n of subjects [1]: 0 | Mouth haemorrhage, n of subjects [1]: 0 | Nausea, n of subjects [1]: 0 | Pain in extremity, % of subjects [1]: (9.1) % | Pain in extremity, n of subjects [1]: 2 | Petechiae, % of subjects [1]: (13.6) % | Petechiae, n of subjects [1]: 3 | Platelet count increased, % of subjects [1]: (9.1) % | Platelet count increased, n of subjects [1]: 2 | Serious TEAE Cerebrovascular accident, n (%) of subjects [1]: 0 n (%) | Serious TEAE Chest pain, n (%) of subjects [1]: 0 n (%) | Serious TEAE Diarrhoea, n (%) of subjects [1]: 0 n (%) | Serious TEAE Haemorrhage intracranial, n (%) of subjects [1]: 0 n (%) | Serious TEAE Lethargy, n (%) of subjects [1]: 0 n (%) | Serious TEAE Mitral valve incompetence, n (%) of subjects [1]: 0 n (%) | Serious TEAE Myocardial infarction, n (%) of subjects [1]: 0 n (%) | Serious TEAE Nausea, n (%) of subjects [1]: 0 n (%) | Serious TEAE Pelvic venous thrombosis, n (%) of subjects [1]: 0 n (%) | Serious TEAE Platelet count decreased, n (%) of subjects [1]: 0 n (%) | Serious TEAE Pneumonia, n (%) of subjects [1]: 0 n (%) | Serious TEAE Pyrexia, n (%) of subjects [1]: 0 n (%) | Serious TEAE Thrombocytopenia, n (%) of subjects [1]: 1 (4.5) n (%) | Serious TEAE Transient ischaemic attack, n (%) of subjects [1]: 0 n (%) | Serious TEAE Vomiting, n (%) of subjects [1]: 0 n (%) | Serious TEAE, % of subjects [1]: (4.5) % | Serious TEAE, SOC Blood and lymphatic system disorders, n (%) of subjects [1]: 1 (4.5) n (%) | Serious TEAE, SOC Cardiac disorders, n (%) of subjects [1]: 0 n (%) | Serious TEAE, SOC Gastrointestinal disorders, n (%) of subjects [1]: 0 n (%) | Serious TEAE, SOC General disorders and administration site conditions, n (%) of subjects [1]: 0 n (%) | Serious TEAE, SOC Infections and infestations, n (%) of subjects [1]: 0 n (%) | Serious TEAE, SOC Investigations, n (%) of subjects [1]: 0 n (%) | Serious TEAE, SOC Nervous system disorders, n (%) of subjects [1]: 0 n (%) | Serious TEAE, SOC Vascular disorders, n (%) of subjects [1]: 0 n (%)
